Experimental data from patent US10815379B2, “pH sensitive fluorescent probe” (The University of Tokyo, priority 2015, dated 2020).
Where two headings read alike, the source gives them in different places. One block for each compound: values may come before it.

Tests used:
[1] = cited from earlier work
[2] = pKa of the protonation reaction from plot of absorbance or fluorescence intensity ratio vs. pH; assay type: physicochemical; details: for pKa of the protonation reaction: 100 mM sodium phosphate buffer, 1% DMSO
Protocol: (§1) FIG. 2a represents the assumed chemical equilibrium equation of 2,6-diMe BnPiperaIndoSiR. FIGS. 2b, 2c, and 2d respectively represent the absorption, fluorescence, and excitation spectra of 2,6-diMe BnPiperaIndoSiR in 100 mM sodium phosphate buffer (containing 1% DMSO) of different pH.
(§2) FIGS. 3a, 3b, and 3c represent the absorption, fluorescence, and excitation spectra of SiRpH3 in 100 mM sodium phosphate buffer (containing 1% DMSO) of different pH.
(§3) FIGS. 4a and 4b represent the absorption and excitation spectra of SiRpH4 in 100 mM sodium phosphate buffer (containing 1% DMSO) of different pH.
(§4) FIG. 5a represents the assumed chemical equilibrium equation of SiRpH5. FIGS. 5b and 5c represent the absorption and excitation spectra of SiRpH5 in 100 mM sodium phosphate buffer (containing 1%) DMSO) of different pH.

[3] = Optical characteristics (absorption, fluorescence, excitation spectra) in 100 mM sodium phosphate buffer; assay type: physicochemical; details: for absorption maximum / absorption wavelength, acidic pH: acidic solution; for absorption maximum / absorption wavelength, basic pH: basic solution
Protocol: The spectral characteristics of compound 1 of the present invention (2,6-diMe BnPiperaIndoSiR) were evaluated. The absorption spectrum, fluorescence spectrum, and excitation spectrum were measured using a Shimadzu UV-1650PC absorption spectrophotometer and a Hitachi F-4500 fluorometer.
as §1
The spectral characteristics of compound 2 of the present invention (SiRpH3) were evaluated. The absorption spectrum fluorescence spectrum, and excitation spectrum were measured using a Shimadzu UV-1650PC absorption spectrophotometer and a Hitachi F-4500 fluorometer.
as §2
The spectral characteristics of compound 3 of the present invention (SiRpH4) were evaluated. The absorption spectrum fluorescence spectrum, and excitation spectrum were measured using a Shimadzu UV-1650PC absorption spectrophotometer and a Hitachi F-4500 fluorometer.
as §3
The spectral characteristics of compound 4 of the present invention (SiRpH5) were evaluated. The absorption spectrum fluorescence spectrum, and excitation spectrum were measured using a Shimadzu UV-1650PC absorption spectrophotometer and a Hitachi F-4500 fluorometer.
as §4

[4] = pH 3.0, 100 mM sodium phosphate buffer
[5] = pH 10.0, 100 mM sodium phosphate buffer
[6] = Table 2, pH 3.0, 100 mM sodium phosphate buffer
[7] = Table 2, pH 7.4, 100 mM sodium phosphate buffer
[8] = Table 2, pH 10.0, 100 mM sodium phosphate buffer
[9] = Table 3, pH 3.0, 100 mM sodium phosphate buffer
[10] = Table 3, pH 10.0, 100 mM sodium phosphate buffer

Compound: 2′,7′-bis-(2-carboxyethyl)-5- (and -6-)carboxyfluoresceins [BCECF]
pKa [1]: 7.0

Compound: Cc1cccc(C)c1C1=c2cc3c(cc2[Si](C)(C)c2cc(N4CCN(Cc5ccccc5S(=O)(=O)O)CC4)ccc21)=[N+](C)CC3 [SiRpH4]
shift of the pKa of the ratio value change [2]: shifted to the basic side in comparison to SiRpH3

Compound: Cc1cc(C(=O)O)cc(C)c1C1=c2cc3c(cc2[Si](C)(C)c2cc(N4CCN(Cc5ccc(S(=O)(=O)O)cc5S(=O)(=O)O)CC4)ccc21)=[N+](C)CC3.O=C([O-])C(F)(F)F [SiRpH5]
pKa of the protonation reaction ([2]; from plot of fluorescence intensity ratio (700 nm, excitation 580 nm / 663 nm) vs. pH): 6.1
shift of the pKa of the ratio value change ([2]; in comparison to the named probe): shifted to the acidic side in comparison to SiRpH4
Λem [3, 9]: 679 nm
Λex [3, 9]: 588 nm
Φfl [3, 9]: 0.21
ε [3, 9]: 23,000 M^−1cm^−1
Λem [3, 10]: 690 nm
Λex [3, 10]: 668 nm
Φfl [3, 10]: 0.08
ε [3, 10]: 33,000 M^−1cm^−1
absorption maximum / absorption wavelength, acidic pH [3]: approximately 590 nm
absorption maximum / absorption wavelength, basic pH [3]: approximately 670 nm

The next lines start with the values.

decrease of pKa in comparison to 2-Me MePiperaIndoSiR ([2]; by benzylation of the piperazine aliphatic amino group): 0.9
pKa of the protonation reaction ([2]; from changes in absorbance at 663 nm when the pH was varied): 6.4
Absmax [3, 4]: 588 nm
E [3, 4]: 26,000 M^−1 cm^−1
Emmax [3, 4]: 676 nm
Φfl [3, 4]: 0.19
Absmax [3, 5]: 663 nm
E [3, 5]: 33,000 M^−1 cm^−1
Emmax [3, 5]: 689 nm
Φfl [3, 5]: 0.12
Compound: Cc1cccc(C)c1C1=c2cc3c(cc2[Si](C)(C)c2cc(N4CCN(Cc5ccccc5)CC4)ccc21)=[N+](C)CC3.O=C(O)C(F)(F)F [2,6-diMe BnPiperaIndoSiR]

lengthening of the absorption wavelength as the pH moved from acidic to basic [3]: approximately 80 nm
Absmax [3, 6]: 585 nm
E [3, 6]: 25,000 M^−1cm^−1
Emmax [3, 6]: 676 nm
Φfl [3, 6]: 0.20
Absmax [3, 7]: 662 nm
E [3, 7]: 30,000 M^−1cm^−1
Emmax [3, 7]: 688 nm
Φfl [3, 7]: 0.12
Absmax [3, 8]: 663 nm
E [3, 8]: 31,000 M^−1cm^−1
Emmax [3, 8]: 689 nm
Φfl [3, 8]: 0.11
absorption maximum / absorption wavelength, acidic pH [3]: approximately 580 nm
absorption maximum / absorption wavelength, basic pH [3]: approximately 660 nm
Compound: Cc1cccc(C)c1C1=c2cc3c(cc2[Si](C)(C)c2cc(N4CCN(Cc5cccc(F)c5)CC4)ccc21)=[N+](C)CC3.O=C(O)C(F)(F)F [SiRpH3]
